Test results published in patent US20260364184A1, “COMPOUND BASED ON OXOISOINDOLINYL-SUBSTITUTED TETRAHYDROPYRIMIDINE-DIONE AND USE THEREOF” (GLUETACS THERAPEUTICS (SHANGHAI) CO., LTD., priority 2023, published 2026).
Read-outs that look alike come from different tables or passages of the source.

What was measured:
[1] = system: Human Multiple myeloma cell line (MM.1S); test: Inhibition of MM.1S cell proliferation (CellTiter luminescent viability); format: cell-based; details: Homo sapiens, MM1.S, Table IG1, FAK inhibitor-based, 96 hours; for inhibition at 0.01 µM: 10 nM, read-out: Inhibition Rate at 10 nM (%); for inhibition at 0.5 µM: 500 nM, read-out: Inhibition Rate at 500 nM (%)
How it was run: (§1)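 IC50 is fitted from luminescent viability (CellTiter-Meiluncell) curves. Nine-point, 5-fold dilution series (top stock 2000 μM) are added at 0.5 μL per 100 μL medium to cells plated the day before, with growth at 37 °C and 5% CO2.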

[2] = system: Human myeloid monocytic leukemia cell line (MV-4-11); test: Inhibition of MV-4-11 cell proliferation (CellTiter luminescent viability); format: cell-based; details: Homo sapiens, MV4-11; for inhibition at 0.01 µM: read-out: Inhibition Rate at 10 nM (%); for inhibition at 0.5 µM: read-out: Inhibition Rate at 500 nM (%)
How it was run: as §1

[3] = system: Human breast cancer cell line (MDA-MB-231); test: Inhibition of MDA-MB-231 cell proliferation (CellTiter luminescent viability); format: cell-based; details: for inhibition at 0.01 µM: read-out: Inhibition Rate at 10 nM (%); for inhibition at 0.5 µM: read-out: Inhibition Rate at 500 nM (%)
Description: The tumor cells used herein were cultured in a cell culture medium listed in table 3 at 37 °C in an incubator with 5% CO2. Prior to experimentation, all cell lines used were correctly identified by STR profiling, and tested negative for mycoplasma contamination using a mycoplasma detection kit through routine screenings.
The IC50 values of the compounds of the present disclosure (including the compounds in Table 1, Table 2, and Examples 1-468) were determined using the CellTiter-Meiluncell Luminescent Cell Viability Assay Kit from Dalian Meilun Biotech Co., Ltd. The detailed procedure is as follows: Tumor cells were seeded in 96-well cell culture plates at the densities specified in Table 4. On the following day, the test compounds of the present disclosure were subjected to serial dilution. The dilution can be performed according to one of the following two methods: • (1) The first dilution method: The test compounds of the present disclosure (including the compounds in Table 1, Table 2, and Examples 1-468) were subjected to 5-fold serial dilutions starting from a highest concentration of 2000 μM, resulting in a total of 9 concentrations from high to low (2000, 400, 80, 16, 3.2, 0.64, 0.128, 0.0256, 0.00512 μM). Subsequently, 0.5 μL of the test compound dilution was transferred into the 96-well plate containing the cells, with each well containing 100 μL of cell culture medium. […] Into the 96-well plate, the diluted test compounds and corresponding detection reagents were added, resulting in final test compound concentrations of 500 nM and 10 nM, respectively. The experimental procedure is described below using the diluted 2 μM test compound as an example.
0.5 μL of the aforementioned diluted compound of the present disclosure (including the compounds in Table 1, Table 2, and Examples 1-468) was added to the seeded cells in 100 μL of medium, yielding a final test compound concentration of 10 nM. After the cells were treated with the compounds of the present disclosure for a specified period, the cell viability assay reagent was added to the culture medium according to the kit's instructions to determine cell viability. […] All controls were treated using the same procedure as the compounds of the present disclosure. The growth inhibition curves for the compounds of the present disclosure were plotted using Prism GraphPad software, and the IC50 values were calculated therefrom.

WEE1 = molecular target: T1, WEE1 (Homo sapiens, UniProt P30291+Q96SW2); test: Western blot degradation of WEE1; format: cell-based; details: hPBMC Cell; 24 hours
T1 construct: expression of target proteins in cells; endogenous in cells
Description: (§2) Conventional Western blot assay was performed to evaluate the effects of the compounds of the present disclosure on the expression of target proteins in cells.
(§3) (1) Cell Seeding and Protein Harvesting: The selected cells were processed according to the cell seeding procedure and protein harvesting procedure in Table II-2.
(§4) (2) To the collected supernatant, 5×SDS sample loading buffer was added, followed by denaturation at 95 °C for 5 minutes. The denatured samples were then separated by SDS-PAGE electrophoresis on a polyacrylamide gel. Proteins were transferred to a nitrocellulose membrane (0.45 μm NC membrane), blocked with blocking buffer at room temperature for 1 hour, and subjected to antibody incubation and development procedures according to the antibody manufacturer's instructions (Cell Signaling Technology).
(§5) Half-Maximal Degradation Concentration value (the drug concentration required for degrading proteins by 50%, abbreviated as DC50) reads method: comparing the grayscale values of Western blot bands from drug-treated samples with those from blank DMSO-treated controls, and identifying the drug concentration range at which the grayscale value is half that of the DMSO-treated control bands.
(§6) DC50 values can be calculated using ImageJ software to measure grayscale values of Western blot bands from drug-treated samples. The concentration-response curve is fitted to estimate the drug concentration corresponding to half the grayscale value.
(§7) Target protein remaining (%) refers to the percentage of target protein remaining in cells after treatment with protein degrader compounds.
(§8) Calculation method for target protein remaining (%): Use ImageJ software to measure grayscale values of Western blot bands from drug (protein degrader)-treated samples. The grayscale value of drug-treated bands is divided by that of internal control protein bands, and the resulting quotient is normalized to obtain the relative percentage of remaining target protein after protein degrader treatment.
(§9) Target protein degradation rate (%)=1−target protein remaining (%).

IKZF1 = molecular target: T2, IKZF1 (Homo sapiens, UniProt Q13422+Q96SW2); test: Western blot degradation of IKZF1; format: cell-based; details: hPBMC Cell; 24 hours
T2 construct: expression of target proteins in cells; endogenous in cells
Description: as §2, §3, §4, §5, §6, §7, §8, §9

IKZF2 = molecular target: T3, IKZF2 (Homo sapiens, UniProt Q96SW2+Q9UKS7); test: Western blot degradation of IKZF2; format: cell-based; details: hPBMC Cell; 24 hours
T3 construct: expression of target proteins in cells; endogenous in cells
Description: as §2, §3, §4, §5, §6, §7, §8, §9

IKZF3 = molecular target: T4, IKZF3 (Homo sapiens, UniProt Q96SW2+Q9UKT9); test: Western blot degradation of IKZF3; format: cell-based; details: hPBMC Cell; 24 hours
T4 construct: expression of target proteins in cells; endogenous in cells
Description: as §2, §3, §4, §5, §6, §7, §8, §9

CK1α = molecular target: T5, CK1α (Homo sapiens, UniProt P48729+Q96SW2); test: Western blot degradation of CK1α; format: cell-based; details: hPBMC Cell; 24 hours
T5 construct: expression of target proteins in cells; endogenous in cells
Description: as §2, §3, §4, §5, §6, §7, §8, §9

GSPT1 = molecular target: T6, GSPT1 (Homo sapiens, UniProt P15170+Q96SW2); test: Western blot degradation of GSPT1; format: cell-based; details: hPBMC Cell; 24 hours
T6 construct: expression of target proteins in cells; endogenous in cells
Description: as §2, §3, §4, §5, §6, §7, §8, §9

[4] = molecular target: T7, human Cereblon WT GST-tagged protein (CRBN) (Homo sapiens, UniProt Q96SW2); test: CRBN binding by HTRF (Cereblon binding kit)
T7 construct: purchased CISBIO 64BDCRBNPEH
How it was run: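 GST-tagged human Cereblon WT was incubated 3 h at room temperature with compound, thalidomide-Re tracer and Eu anti-GST antibody. Final compound concentrations were 10 to 0.00064 µM (7 points) or 2 and 0.5 µM. Inhibition rate was calculated from HTRF 665/620 nm ratios versus solvent and blank controls.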

[5] = system: Human lung cancer cell line (H292); test: Inhibition of H292 cell proliferation (CellTiter luminescent viability); format: cell-based; details: NCI-H292, H292 cell; for inhibition at 0.01 µM: 10 nM, read-out: Inhibition Rate at 10 nM (%); for inhibition at 0.5 µM: 500 nM, read-out: Inhibition Rate at 500 nM (%)
[6] = Table IG2, FAK inhibitor-based, MV-4-11, 10 nM, 96 hours
[7] = Table IG2, FAK inhibitor-based, MV-4-11, 500 nM, 96 hours
[8] = Table IG3, FAK inhibitor-based, MDA-MB-231, 10 nM, 96 hours
[9] = Table IG3, FAK inhibitor-based, MDA-MB-231, 500 nM, 96 hours

T4 sequence (Q9UKT9 whole entry): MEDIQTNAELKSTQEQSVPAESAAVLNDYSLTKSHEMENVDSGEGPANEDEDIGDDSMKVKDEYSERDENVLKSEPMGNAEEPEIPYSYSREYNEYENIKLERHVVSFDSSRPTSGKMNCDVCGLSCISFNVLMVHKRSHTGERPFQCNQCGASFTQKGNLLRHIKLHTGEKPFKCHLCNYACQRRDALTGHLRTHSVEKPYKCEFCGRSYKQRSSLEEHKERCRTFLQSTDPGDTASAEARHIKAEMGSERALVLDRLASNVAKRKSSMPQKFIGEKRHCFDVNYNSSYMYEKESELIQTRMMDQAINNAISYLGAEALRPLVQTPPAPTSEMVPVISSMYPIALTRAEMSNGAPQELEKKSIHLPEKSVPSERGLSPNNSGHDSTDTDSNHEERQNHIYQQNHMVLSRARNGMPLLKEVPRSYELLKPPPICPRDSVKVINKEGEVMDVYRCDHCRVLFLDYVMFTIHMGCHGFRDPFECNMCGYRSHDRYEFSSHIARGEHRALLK
T4 sequence (Q96SW2 whole entry): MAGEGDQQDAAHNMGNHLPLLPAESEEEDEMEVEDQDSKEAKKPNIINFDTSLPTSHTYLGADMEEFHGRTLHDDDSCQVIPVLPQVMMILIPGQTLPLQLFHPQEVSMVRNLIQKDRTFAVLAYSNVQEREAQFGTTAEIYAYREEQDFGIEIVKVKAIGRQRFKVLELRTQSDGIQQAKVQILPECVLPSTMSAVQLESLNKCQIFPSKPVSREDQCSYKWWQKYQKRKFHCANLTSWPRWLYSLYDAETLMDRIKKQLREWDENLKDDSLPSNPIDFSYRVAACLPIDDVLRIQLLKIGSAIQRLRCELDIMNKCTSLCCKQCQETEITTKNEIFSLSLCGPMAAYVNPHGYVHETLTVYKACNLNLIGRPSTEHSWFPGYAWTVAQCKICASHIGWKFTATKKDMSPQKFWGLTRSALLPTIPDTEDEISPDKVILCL
T4 sequence (Q16531 whole entry partner): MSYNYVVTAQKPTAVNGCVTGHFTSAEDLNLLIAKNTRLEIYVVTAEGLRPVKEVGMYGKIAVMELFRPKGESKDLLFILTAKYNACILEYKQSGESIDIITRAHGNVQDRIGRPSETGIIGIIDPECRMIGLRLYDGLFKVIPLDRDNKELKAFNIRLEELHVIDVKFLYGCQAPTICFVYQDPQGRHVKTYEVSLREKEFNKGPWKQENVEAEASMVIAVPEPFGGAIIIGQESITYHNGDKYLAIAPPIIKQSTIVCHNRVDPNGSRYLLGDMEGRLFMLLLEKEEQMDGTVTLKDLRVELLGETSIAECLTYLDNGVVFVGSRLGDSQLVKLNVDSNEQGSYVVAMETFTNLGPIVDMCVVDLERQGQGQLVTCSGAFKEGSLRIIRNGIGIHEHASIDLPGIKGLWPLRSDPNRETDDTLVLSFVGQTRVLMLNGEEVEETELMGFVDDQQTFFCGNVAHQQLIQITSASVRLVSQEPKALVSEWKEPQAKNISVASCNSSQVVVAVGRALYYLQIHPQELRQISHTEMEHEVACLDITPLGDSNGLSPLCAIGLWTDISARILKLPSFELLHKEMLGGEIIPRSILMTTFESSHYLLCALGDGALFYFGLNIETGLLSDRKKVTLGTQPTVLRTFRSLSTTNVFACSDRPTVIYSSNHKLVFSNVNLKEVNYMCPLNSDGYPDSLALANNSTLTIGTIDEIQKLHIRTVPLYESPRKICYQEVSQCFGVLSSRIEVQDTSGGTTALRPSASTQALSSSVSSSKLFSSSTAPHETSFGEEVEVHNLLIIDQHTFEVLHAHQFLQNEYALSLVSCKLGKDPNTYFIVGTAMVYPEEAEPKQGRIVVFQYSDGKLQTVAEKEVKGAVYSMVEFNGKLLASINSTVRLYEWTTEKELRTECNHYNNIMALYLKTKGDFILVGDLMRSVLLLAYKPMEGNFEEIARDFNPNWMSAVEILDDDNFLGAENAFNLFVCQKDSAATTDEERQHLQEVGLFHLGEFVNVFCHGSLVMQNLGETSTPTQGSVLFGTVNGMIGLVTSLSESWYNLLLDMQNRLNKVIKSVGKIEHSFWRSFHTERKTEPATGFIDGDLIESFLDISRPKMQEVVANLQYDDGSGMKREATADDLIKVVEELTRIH
T7 sequence (Q96SW2 whole entry): as the sequence (Q96SW2 whole entry) above
T3 sequence (Q9UKS7 whole entry): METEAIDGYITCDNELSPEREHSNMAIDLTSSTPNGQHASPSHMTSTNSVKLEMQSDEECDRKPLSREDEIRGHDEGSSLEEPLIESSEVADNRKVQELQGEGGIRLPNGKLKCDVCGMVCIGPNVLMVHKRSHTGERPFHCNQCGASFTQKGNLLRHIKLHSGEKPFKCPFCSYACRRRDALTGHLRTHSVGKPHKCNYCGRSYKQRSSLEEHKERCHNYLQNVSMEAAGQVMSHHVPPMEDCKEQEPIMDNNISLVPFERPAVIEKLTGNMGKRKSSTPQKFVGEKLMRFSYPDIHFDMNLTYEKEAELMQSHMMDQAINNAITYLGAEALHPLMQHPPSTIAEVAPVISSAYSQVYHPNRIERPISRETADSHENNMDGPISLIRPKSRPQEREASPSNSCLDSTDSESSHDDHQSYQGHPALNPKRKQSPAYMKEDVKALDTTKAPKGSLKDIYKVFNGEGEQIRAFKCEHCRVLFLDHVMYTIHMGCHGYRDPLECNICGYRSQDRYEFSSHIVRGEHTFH
T3 sequence (Q96SW2 whole entry): as the sequence (Q96SW2 whole entry) above
T3 sequence (Q16531 whole entry partner): as the sequence (Q16531 whole entry partner) above
T6 sequence (P15170 whole entry): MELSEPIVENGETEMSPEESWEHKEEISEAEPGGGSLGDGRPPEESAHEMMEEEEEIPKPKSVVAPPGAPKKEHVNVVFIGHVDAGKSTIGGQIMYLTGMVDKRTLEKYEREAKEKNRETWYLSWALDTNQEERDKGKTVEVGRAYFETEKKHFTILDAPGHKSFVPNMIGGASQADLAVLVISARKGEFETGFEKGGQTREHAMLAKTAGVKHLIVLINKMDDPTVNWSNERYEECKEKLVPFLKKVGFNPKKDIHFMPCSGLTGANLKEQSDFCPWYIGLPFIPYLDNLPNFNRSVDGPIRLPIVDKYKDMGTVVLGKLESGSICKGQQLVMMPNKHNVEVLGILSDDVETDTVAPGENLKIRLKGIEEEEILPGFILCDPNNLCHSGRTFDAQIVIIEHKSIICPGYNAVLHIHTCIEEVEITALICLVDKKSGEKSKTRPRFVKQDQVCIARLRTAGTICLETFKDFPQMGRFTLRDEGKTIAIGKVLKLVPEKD
T6 sequence (Q96SW2 whole entry): as the sequence (Q96SW2 whole entry) above
T6 sequence (Q16531 whole entry partner): as the sequence (Q16531 whole entry partner) above
T5 sequence (P48729 whole entry): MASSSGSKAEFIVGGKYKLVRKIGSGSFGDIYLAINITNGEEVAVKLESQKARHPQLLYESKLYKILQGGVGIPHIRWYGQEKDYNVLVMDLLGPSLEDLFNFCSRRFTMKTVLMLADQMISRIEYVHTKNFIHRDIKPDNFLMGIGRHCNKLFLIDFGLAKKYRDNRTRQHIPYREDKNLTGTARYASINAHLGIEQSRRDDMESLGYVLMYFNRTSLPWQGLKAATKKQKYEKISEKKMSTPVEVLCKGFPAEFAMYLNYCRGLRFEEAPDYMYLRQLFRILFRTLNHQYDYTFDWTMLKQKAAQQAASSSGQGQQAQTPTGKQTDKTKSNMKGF
T5 sequence (Q96SW2 whole entry): as the sequence (Q96SW2 whole entry) above
T5 sequence (Q16531 whole entry partner): as the sequence (Q16531 whole entry partner) above
T1 sequence (P30291 whole entry): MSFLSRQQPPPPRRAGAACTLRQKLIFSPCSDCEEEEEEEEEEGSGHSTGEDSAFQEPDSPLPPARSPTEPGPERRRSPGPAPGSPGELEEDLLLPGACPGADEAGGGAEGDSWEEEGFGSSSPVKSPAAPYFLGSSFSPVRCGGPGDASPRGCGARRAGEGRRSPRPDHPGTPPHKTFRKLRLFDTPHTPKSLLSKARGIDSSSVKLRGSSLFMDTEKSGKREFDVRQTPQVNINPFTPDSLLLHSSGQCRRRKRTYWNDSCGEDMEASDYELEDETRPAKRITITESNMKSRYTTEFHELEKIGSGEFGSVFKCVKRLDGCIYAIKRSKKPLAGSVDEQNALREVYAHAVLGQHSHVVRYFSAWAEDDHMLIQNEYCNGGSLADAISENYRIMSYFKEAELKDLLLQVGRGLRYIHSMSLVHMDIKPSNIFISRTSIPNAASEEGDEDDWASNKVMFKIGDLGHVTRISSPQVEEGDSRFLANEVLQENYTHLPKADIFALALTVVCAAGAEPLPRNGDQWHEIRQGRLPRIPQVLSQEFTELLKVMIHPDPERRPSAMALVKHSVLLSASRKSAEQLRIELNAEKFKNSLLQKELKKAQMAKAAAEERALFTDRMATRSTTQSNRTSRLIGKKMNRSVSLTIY
T1 sequence (Q96SW2 whole entry): as the sequence (Q96SW2 whole entry) above
T1 sequence (Q16531 whole entry partner): as the sequence (Q16531 whole entry partner) above

| SMILES | inhibition at 0.01 µM [1] | inhibition at 0.5 µM [1] | inhibition at 0.01 µM [2, 6] | inhibition at 0.5 µM [2, 7] | inhibition at 0.01 µM [3, 8] | inhibition at 0.5 µM [3, 9] | also measured |
| --- | --- | --- | --- | --- | --- | --- | --- |
| CNC(=O)c1ccccc1Nc1cc(Nc2ccc(N3CCOCC3)cc2OC)ncc1C(F)(F)F [PND-1186, reference compound] | 5 to 10% | 20 to 30% | 5 to 10% | 60 to 70% | 30 to 40% | 40 to 50% | – |
| O=C1CCN(N2Cc3cc(CBr)ccc3C2=O)C(=O)N1 [GT-05568, 1-(5-(bromomethyl)-1-oxoisoindolin-2-yl)dihydropyrimidine-2,4(1H, 3H)-dione] | – | – | – | – | – | – | Degradation of substrate protein WEE1 (substrate protein remaining %) (WEE1): A (0%≤substrate protein remaining %≤80%); Degradation of substrate protein IKZF1 (substrate protein remaining %) (IKZF1): A (0%≤substrate protein remaining %≤80%); Degradation of substrate protein IKZF2 (substrate protein remaining %) (IKZF2): B (80%<substrate protein remaining %≤100%); Degradation of substrate protein IKZF3 (substrate protein remaining %) (IKZF3): A (0%≤substrate protein remaining %≤80%); Degradation of substrate protein CK1α (substrate protein remaining %) (CK1α): A (0%≤substrate protein remaining %≤80%); Degradation of substrate protein GSPT1 (substrate protein remaining %) (GSPT1): A (0%≤substrate protein remaining %≤80%); IC50 [4]: 1 to 1.5 µM |
| CN(c1cccc(CNc2nc(Nc3ccc(N4CCC(N5CCN(CC6CCN(c7cccc8c7C(=O)N(N7CCC(=O)NC7=O)C8=O)CC6)CC5)CC4)cc3)ncc2C(F)(F)F)c1)S(C)(=O)=O [GT-08248, N-(3-(((2-((4-(4-(4-((1-(2-(2,4-dioxotetrahydropyrimidin-1(2H)-yl)-1,3-dioxoisoindolin-4-yl)piperidin-4-yl)methyl)piperazin-1-yl)piperidin-1-yl)phenyl)amino)-5-(trifluoromethyl)pyrimidin-4-yl)amino)methyl)phenyl)-N-methylmethanesulfonamide] | 30 to 40% | 60 to 80% | 20 to 30% | 80 to 100% | 20 to 30% | 70 to 80% | – |
| CNC(=O)c1ccc(Nc2ncc(C(F)(F)F)c(NCc3nccnc3N(C)S(C)(=O)=O)n2)cc1 [Defactinib, reference compound] | 5 to 10% | 5 to 10% | 5 to 10% | 60 to 70% | 30 to 40% | 30 to 40% | – |
| CN(c1nccnc1CNc1nc(Nc2ccc(N3CCC(N4CCN(CC5CCN(c6cccc7c6C(=O)N(N6CCC(=O)NC6=O)C7=O)CC5)CC4)CC3)cc2)ncc1C(F)(F)F)S(C)(=O)=O [GT-08245, N-(3-(((2-((4-(4-(4-((1-(2-(2,4-dioxotetrahydropyrimidin-1(2H)-yl)-1,3-dioxoisoindolin-4-yl)piperidin-4-yl)methyl)piperazin-1-yl)piperidin-1-yl)phenyl)amino)-5-(trifluoromethyl)pyrimidin-4-yl)amino)methyl)pyrazin-2-yl)-N-methylmethanesulfonamide] | 5 to 10% | 80 to 100% | 20 to 30% | 80 to 100% | 30 to 40% | 80 to 100% | – |
| CN(Cc1ccc2c(c1)C(=O)N(N1CCC(=O)NC1=O)C2)C1CCN(c2ccc(Nc3ncc(C(F)(F)F)c(NCc4nccnc4N(C)S(C)(=O)=O)n3)cc2)CC1 [GT-08136, N-(3-(((2-((4-(4-(((2-(2,4-dioxotetrahydropyrimidin-1(2H)-yl)-3-oxoisoindolin-5-yl)methyl)(methyl)amino)piperidin-1-yl)phenyl)amino)-5-(trifluoromethyl)pyrimidin-4-yl)amino)methyl)pyrazin-2-yl)-N-methylmethanesulfonamide] | – | – | -5 to 0% | 80 to 100% | 20 to 30% | 50 to 60% | – |
| Nc1cccc2c1CN(C1CCC(=O)NC1=O)C2=O (centres unmarked) [Lenalidomide, lenalidomide, reference compound] | – | – | – | – | – | – | inhibition at 0.01 µM ([2]; MV-4-11 cell, 10 nM): 20 to 30%; inhibition at 0.5 µM ([2]; MV-4-11 cell, 500 nM): 10 to 15%; inhibition at 0.01 µM [5]: 15 to 20%; inhibition at 0.5 µM [5]: 0 to 5%; inhibition at 0.01 µM ([3]; MDA-MB-231 cell, 10 nM): 0 to 5%; inhibition at 0.5 µM ([3]; MDA-MB-231 cell, 500 nM): 0 to 5% |
| NCc1ccc2c(c1)CN(N1CCC(=O)NC1=O)C2=O [GT-08118, 1-(5-(aminomethyl)-1-oxoisoindolin-2-yl)dihydropyrimidine-2,4(1H, 3H)-dione] | – | – | – | – | – | – | inhibition at 0.01 µM ([2]; MV-4-11 cell, 10 nM): 40 to 50%; inhibition at 0.5 µM ([2]; MV-4-11 cell, 500 nM): 50 to 60%; inhibition at 0.01 µM [5]: 20 to 30%; inhibition at 0.5 µM [5]: 20 to 30%; inhibition at 0.01 µM ([3]; MDA-MB-231 cell, 10 nM): 20 to 30%; inhibition at 0.5 µM ([3]; MDA-MB-231 cell, 500 nM): 20 to 30% |
